Data set [1] is described as follows: Kinetic solubility of compound by LYSA. It is filed as physicochemical. The conditions noted are these: read-out: Kinetic_solubility.
Data set [2] is described as follows: Clearance in Wistar/Han rat at 0.5 mg/kg, iv administered as single bolus dose. It is filed as ADME, organism-based. The note with it: in vivo.
A short description of data set [3]: Cmax in C57BL/6J mouse at 50 mg/kg, po by LC/MS/MS analysis. It is filed as ADME, organism-based. More on the design: dose 50 mg/kg, route oral. The note with it: in vivo.
The nature of data set [4]: Cmax in C57BL/6J mouse at 5 mg/kg, po by LC/MS/MS analysis. Also noted: dose 5 mg/kg, route oral. The note with it: in vivo. It is filed as ADME, organism-based.
The nature of data set [5]: AUC (0 to last) in C57BL/6J mouse at 5 mg/kg, po by LC/MS/MS analysis. It is filed as ADME, organism-based. More on the design: dose 5 mg/kg, time 0 - last, route oral. The conditions noted are these: in vivo.
Data set [6] is described as follows: AUC (0 to last) in C57BL/6J mouse at 50 mg/kg, po by LC/MS/MS analysis. It is filed as ADME, organism-based. Also noted: dose 50 mg/kg, time 0 - last, route oral. The note with it: in vivo.
The nature of data set [7]: Solubility of compound in fed-state simulated intestinal fluid. It is filed as ADME.
The nature of data set [8]: Oral bioavailability in C57BL/6J mouse at 50 mg/kg by LC/MS/MS analysis. The note with it: in vivo. It is filed as ADME, organism-based.
A short description of data set [9]: Clearance in Wistar/Han rat at 1 mg/kg, iv administered as single bolus dose. It is filed as ADME, organism-based. The note with it: in vivo.
The nature of data set [10]: Tmax in C57BL/6J mouse at 50 mg/kg, po by LC/MS/MS analysis. It is filed as ADME, organism-based. The conditions noted are these: in vivo.
A short description of data set [11]: Oral bioavailability in C57BL/6J mouse at 5 mg/kg by LC/MS/MS analysis. It is filed as ADME, organism-based. The note with it: in vivo.
A short description of data set [12]: Solubility of compound in fasted-state simulated intestinal fluid. It is filed as ADME.
Data set [13] can be described thus: AUC (0 to last) in C57BL/6J mouse at 1 mg/kg, iv by LC/MS/MS analysis. It is filed as ADME, organism-based. Also noted: dose 1 mg/kg, route intravenous, time 0 - last. The conditions noted are these: in vivo.
Data set [14] in a line: Tmax in C57BL/6J mouse at 5 mg/kg, po by LC/MS/MS analysis. The note with it: in vivo. It is filed as ADME, organism-based.
Data set [15] can be described thus: Volume of distribution at steady state in C57BL/6J mouse at 1 mg/kg, iv by LC/MS/MS analysis. It is filed as ADME, organism-based. The note with it: in vivo, read-out: Vdss.
Data set [16] can be described thus: Clearance in C57BL/6J mouse at 1 mg/kg, iv by LC/MS/MS analysis. It is filed as ADME, organism-based. The note with it: in vivo.

Converted amounts (≈) assume the structure as drawn.

Regarding `CC(C)(CO)C1Cc2[nH]c(=O)c3ccccc3c2CO1` (racemic), the solubility kinetic in data set [1] came out at 66 µg/mL (≈ 241 µM).
For the compound `Cc1cccc2c(=O)[nH]c3c(c12)COC(C(C)C)C3` (racemic), in [1], the solubility kinetic is less than 1 µg/mL. The compound further displayed a clearance in data set [2] of 20 mL/min/kg.
Regarding `CC(C)(C)C1Cc2[nH]c(=O)c3ccccc3c2CO1` (racemic), the solubility kinetic in data set [1] was less than 1 µg/mL. Also, the clearance in [2] was found to be 2 mL/min/kg.
Take `O=C(C1COC1)N1CCC(C2Cc3[nH]c(=O)c4ccccc4c3CO2)CC1` (racemic): the solubility kinetic in [1] came out at 13 µg/mL (≈ 35.3 µM).
For the compound `CC(C)C1Cc2[nH]c(=O)c3cccnc3c2CO1` (racemic), the solubility kinetic in data set [1] was determined as 13 µg/mL (≈ 53.2 µM). The clearance in data set [2] turned out to be 10 mL/min/kg.
Take `Cc1cccc2c(=O)[nH]c3c(c12)COC(C(C)(C)CO)C3` (racemic): the Cmax in data set [3] came to 14000 ng/mL; in data set [4] it was 1600 ng/mL. For the same compound, the exposure AUC(0-t) worked out at 1400 ng·h/mL in data set [5], 27000 ng·h/mL in [6] and 600 ng·h/mL in [13]. Moreover, the solubility was 143 µg/mL (≈ 498 µM) in data set [7] and 50 µg/mL (≈ 174 µM) in data set [12]. Besides, the bioavailability in data set [8] came out at 92%; in data set [11], 49%. In addition, the clearance was 25 mL/min/kg in [9] and 28 mL/min/kg in data set [16]. Besides, the Tmax in data set [10] and in data set [14] was 15 min each time. Besides, the Vd in [15] was found to be 1.5 L/kg. Besides, the solubility kinetic in data set [1] was 4 µg/mL (≈ 13.9 µM).
As to `CS(=O)(=O)N1CCC(C2Cc3[nH]c(=O)c4ccccc4c3CO2)C1` (racemic), in [1], the solubility kinetic was found to be 28 µg/mL (≈ 80.4 µM). The clearance in [2] worked out at 47 mL/min/kg.
Regarding `CC(C)C1Cc2[nH]c(=O)c3ccccc3c2CO1` (racemic), the solubility kinetic in data set [1] was 5 µg/mL (≈ 20.6 µM). In data set [2], this compound showed a clearance of 37 mL/min/kg.

The clearance is the rate of elimination divided by the concentration. One may read the Cmax as the highest concentration seen after dosing. What is called AUC(0-t) is exposure summed from dosing to a finite time, without extrapolation to infinity. The low end stands for less exposure, the high end for more exposure. As a reminder, the solubility is the concentration that dissolves in the medium under given conditions. Low values mean little dissolved substance, high ones much dissolved substance. For orientation: bioavailability means dose-corrected exposure relative to a reference, in per cent. Read a high bioavailability as good availability. The term Tmax denotes the time at which the peak concentration occurs.
